Data on eleven compounds can be found in the SangsterLogP compilation.

As a reminder, the logP is a log measure of how a compound divides between an organic and an aqueous phase. A high value points to higher lipophilicity. Compound `Oc1ccc(-c2ccc(O)cc2)cc1` came in with a lipophilicity (logP) of 2.66.

As for `Oc1c(Cl)cc(-c2ccc(Cl)cc2)cc1Cl`, the log partition coefficient (logP) was determined as 5.22.

Turning to `Oc1ccc(-c2cc(Cl)ccc2Cl)cc1`, the logP came to 4.63.

With `Oc1ccc(-c2cc(Cl)c(Cl)c(Cl)c2Cl)cc1`, the logP came to 5.81.

`Oc1ccc(-c2c(Cl)cccc2Cl)cc1` returned a logP of 4.63.

Compound `Oc1ccc(-c2c(Cl)cc(Cl)cc2Cl)cc1` displayed a lipophilicity (logP) of 5.22.

`Oc1c(Cl)cc(-c2cc(Cl)c(O)c(Cl)c2)cc1Cl` came in with a logP of 5.14. The logP values of the last two compounds are within 0.2 log units of each other.

The compound `Oc1ccc(-c2ccccc2)cc1` had a log partition coefficient (logP) of 3.33.

Take `Oc1ccc(-c2ccc(O)cc2Cl)cc1`: the logP was determined as 3.37.

For the compound `Oc1ccc(-c2ccccc2)c(Cl)c1`, the log partition coefficient (logP) turned out to be 4.04.

The compound `Oc1ccc(-c2ccc(Cl)cc2)cc1` had a lipophilicity (logP) of 4.04.
